Laboratory results: ChEMBL document CHEMBL1201862, “PubChem BioAssay data set” (2004)
Active and inactive are the calls of the source.

Experiments:
cells [1] = assay type: functional
[2] = A Cell Based Secondary Assay to Explore Cytotoxicity in THP-1 Cells of Compounds that Modulate Mycobacterium tuberculosis in Media Containing Glycerol versus Media without Glycerol (2).; assay type: functional
Insulin-degrading enzyme [3] = target: T1, Insulin-degrading enzyme (Homo sapiens, UniProt P14735); experiment: recombinant IDE activation, cell-free – biochemical, fluorescence polarization, counter-screen for IDE activator project, dose response (AID 588681)
T1 sequence (P14735 whole entry): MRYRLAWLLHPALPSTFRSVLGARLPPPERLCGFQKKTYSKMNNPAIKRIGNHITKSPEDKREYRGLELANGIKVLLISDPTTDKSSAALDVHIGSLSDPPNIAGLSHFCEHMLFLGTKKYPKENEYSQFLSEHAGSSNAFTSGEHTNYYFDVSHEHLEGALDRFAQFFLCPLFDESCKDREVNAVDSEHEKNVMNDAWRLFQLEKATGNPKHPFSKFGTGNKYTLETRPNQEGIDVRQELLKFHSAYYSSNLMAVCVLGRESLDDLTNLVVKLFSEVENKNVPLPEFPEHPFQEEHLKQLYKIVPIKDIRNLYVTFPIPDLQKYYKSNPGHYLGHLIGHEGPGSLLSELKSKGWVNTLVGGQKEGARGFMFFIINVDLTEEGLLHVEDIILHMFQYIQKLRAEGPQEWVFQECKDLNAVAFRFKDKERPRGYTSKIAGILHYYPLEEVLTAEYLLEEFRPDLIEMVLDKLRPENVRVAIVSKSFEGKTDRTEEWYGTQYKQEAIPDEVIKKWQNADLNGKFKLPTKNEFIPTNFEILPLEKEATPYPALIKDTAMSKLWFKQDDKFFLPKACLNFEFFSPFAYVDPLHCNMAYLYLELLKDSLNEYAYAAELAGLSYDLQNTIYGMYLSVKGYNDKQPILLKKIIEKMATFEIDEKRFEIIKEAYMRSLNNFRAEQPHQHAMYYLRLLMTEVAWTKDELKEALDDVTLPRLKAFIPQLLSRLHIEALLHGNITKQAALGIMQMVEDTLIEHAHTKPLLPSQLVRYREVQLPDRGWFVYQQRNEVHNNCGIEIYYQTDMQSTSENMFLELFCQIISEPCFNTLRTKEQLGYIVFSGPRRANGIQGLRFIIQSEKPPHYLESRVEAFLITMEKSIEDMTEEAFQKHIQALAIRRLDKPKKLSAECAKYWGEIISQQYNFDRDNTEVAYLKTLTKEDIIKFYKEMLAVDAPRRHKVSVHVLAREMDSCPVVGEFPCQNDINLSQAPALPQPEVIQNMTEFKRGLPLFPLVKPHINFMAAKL

Insulin-degrading enzyme [4] = target: T1, Insulin-degrading enzyme; experiment: cellular IDE activation of Abeta substrate cleavage – fluorescence polarization, HEK cells, dose response (AID 588439); assay type: functional, cell-based
[5] = target: T2, Histone-lysine N-methyltransferase NSD2 (Homo sapiens, UniProt O96028); assay type: biochemical
T2 sequence (O96028 whole entry): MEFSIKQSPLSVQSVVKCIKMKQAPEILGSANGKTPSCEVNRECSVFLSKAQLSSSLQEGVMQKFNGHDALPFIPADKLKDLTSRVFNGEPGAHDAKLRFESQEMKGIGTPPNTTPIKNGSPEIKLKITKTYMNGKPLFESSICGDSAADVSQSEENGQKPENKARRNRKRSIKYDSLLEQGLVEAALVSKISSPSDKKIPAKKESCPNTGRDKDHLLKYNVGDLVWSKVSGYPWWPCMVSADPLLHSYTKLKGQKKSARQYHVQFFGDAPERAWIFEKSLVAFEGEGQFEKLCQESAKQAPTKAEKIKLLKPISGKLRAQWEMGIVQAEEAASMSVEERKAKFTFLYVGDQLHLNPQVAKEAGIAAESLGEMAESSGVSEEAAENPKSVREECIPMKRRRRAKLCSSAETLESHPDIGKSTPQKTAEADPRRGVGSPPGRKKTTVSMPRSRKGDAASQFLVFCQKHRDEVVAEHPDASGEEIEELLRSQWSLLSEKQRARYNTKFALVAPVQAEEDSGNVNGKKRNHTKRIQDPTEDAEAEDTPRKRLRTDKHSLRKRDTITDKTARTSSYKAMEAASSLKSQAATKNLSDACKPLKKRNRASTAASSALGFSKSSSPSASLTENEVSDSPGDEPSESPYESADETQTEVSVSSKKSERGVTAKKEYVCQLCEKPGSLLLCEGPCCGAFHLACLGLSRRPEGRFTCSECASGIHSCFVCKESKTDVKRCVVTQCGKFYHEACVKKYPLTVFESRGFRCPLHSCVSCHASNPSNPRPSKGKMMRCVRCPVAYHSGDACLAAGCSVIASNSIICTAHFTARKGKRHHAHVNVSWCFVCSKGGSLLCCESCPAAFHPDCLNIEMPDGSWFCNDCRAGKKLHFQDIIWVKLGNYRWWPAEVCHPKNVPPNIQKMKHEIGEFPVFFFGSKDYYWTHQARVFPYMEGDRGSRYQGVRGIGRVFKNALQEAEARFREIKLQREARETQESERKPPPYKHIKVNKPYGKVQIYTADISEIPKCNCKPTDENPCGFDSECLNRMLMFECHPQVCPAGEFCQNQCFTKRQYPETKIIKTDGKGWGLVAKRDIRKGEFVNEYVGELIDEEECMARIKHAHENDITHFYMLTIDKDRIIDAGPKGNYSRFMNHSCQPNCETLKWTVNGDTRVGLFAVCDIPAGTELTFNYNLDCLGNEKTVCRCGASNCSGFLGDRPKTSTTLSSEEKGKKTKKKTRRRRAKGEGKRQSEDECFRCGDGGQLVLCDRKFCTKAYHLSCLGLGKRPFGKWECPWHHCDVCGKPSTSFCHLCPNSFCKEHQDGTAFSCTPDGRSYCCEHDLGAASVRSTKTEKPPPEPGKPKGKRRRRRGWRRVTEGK

[6] = target: Ras and Rab interactor 1/Tyrosine-protein kinase ABL1 (Homo sapiens, UniProt P00519+Q13671); assay type: functional;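 further: biochemical TR-FRET dose-response test measuring inhibition of binding between Rin1 and Abl proteins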
Sequence of Ras and Rab interactor 1/Tyrosine-protein kinase ABL1 (P00519 whole entry): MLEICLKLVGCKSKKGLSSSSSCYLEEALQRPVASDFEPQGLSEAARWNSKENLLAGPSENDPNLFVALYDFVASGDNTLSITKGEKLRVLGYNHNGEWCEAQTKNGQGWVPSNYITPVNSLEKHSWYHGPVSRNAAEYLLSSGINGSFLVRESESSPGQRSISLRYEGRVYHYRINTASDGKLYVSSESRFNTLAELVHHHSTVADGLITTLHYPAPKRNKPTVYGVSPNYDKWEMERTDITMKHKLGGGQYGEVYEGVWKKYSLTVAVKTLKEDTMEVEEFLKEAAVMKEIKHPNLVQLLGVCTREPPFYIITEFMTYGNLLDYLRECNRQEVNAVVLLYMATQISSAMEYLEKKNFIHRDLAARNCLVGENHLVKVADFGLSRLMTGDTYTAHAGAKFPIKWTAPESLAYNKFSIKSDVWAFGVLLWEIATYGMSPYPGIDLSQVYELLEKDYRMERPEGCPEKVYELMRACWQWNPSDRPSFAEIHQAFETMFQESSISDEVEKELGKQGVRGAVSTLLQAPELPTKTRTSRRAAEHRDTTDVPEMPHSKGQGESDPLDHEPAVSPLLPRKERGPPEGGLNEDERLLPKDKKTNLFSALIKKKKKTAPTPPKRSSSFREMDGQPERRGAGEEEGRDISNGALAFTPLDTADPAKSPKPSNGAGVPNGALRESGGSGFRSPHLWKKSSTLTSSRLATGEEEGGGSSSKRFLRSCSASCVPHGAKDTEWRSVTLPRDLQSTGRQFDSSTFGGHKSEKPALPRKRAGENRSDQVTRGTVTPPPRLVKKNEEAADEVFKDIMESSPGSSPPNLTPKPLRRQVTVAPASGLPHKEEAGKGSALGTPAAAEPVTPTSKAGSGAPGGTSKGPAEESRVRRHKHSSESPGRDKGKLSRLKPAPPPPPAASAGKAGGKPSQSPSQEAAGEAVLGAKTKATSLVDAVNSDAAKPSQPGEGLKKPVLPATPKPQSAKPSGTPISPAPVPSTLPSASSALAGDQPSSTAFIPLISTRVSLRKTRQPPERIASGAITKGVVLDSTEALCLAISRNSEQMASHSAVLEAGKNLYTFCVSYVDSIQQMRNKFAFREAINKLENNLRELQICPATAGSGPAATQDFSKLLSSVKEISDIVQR
Sequence of Ras and Rab interactor 1/Tyrosine-protein kinase ABL1 (Q13671 whole entry): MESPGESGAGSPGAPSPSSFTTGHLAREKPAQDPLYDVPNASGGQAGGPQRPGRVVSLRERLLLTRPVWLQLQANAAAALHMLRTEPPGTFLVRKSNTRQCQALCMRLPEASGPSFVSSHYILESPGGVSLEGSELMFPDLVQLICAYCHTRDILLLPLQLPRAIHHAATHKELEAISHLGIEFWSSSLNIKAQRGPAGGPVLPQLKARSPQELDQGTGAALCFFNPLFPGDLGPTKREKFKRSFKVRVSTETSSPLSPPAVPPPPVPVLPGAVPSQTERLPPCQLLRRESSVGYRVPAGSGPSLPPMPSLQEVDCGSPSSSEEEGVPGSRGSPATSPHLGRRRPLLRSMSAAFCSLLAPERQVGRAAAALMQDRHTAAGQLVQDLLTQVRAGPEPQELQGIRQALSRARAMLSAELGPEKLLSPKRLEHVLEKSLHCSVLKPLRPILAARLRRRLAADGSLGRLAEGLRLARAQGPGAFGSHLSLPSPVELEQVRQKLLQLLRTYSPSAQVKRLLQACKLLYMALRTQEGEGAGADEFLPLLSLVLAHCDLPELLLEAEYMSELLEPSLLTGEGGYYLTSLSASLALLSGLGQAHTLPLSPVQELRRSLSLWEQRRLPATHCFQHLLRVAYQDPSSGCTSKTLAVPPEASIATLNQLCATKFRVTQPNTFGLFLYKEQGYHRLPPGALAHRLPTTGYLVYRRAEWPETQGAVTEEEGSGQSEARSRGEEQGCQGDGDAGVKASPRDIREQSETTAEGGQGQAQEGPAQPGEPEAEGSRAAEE

Nonstructural protein 1 = Nonstructural protein 1 (Influenza A virus, UniProt Q194T2); assay type: functional, Influenza A virus (A/California/07/2009(H1N1))
[7] = target: G-protein coupled receptor 55 (Homo sapiens, UniProt Q9Y2T6); experiment: inhibition of LPI-stimulated GPR55 beta-arrestin translocation – imaging, U2OS, beta-arrestin-GFP, LPI agonist, primary screen (AID 2013); assay type: functional;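 further: antagonist potency measured as reduced agonist-driven arrestin aggregation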
[8] = target: Potassium voltage-gated channel subfamily KQT member 2 (Rattus norvegicus, UniProt O88943); experiment: blockers of KCNQ2 channel current – cell-based, automated electrophysiology, set II, rat KCNQ2, dose response (AID 588637); assay type: functional
Sequence of Potassium voltage-gated channel subfamily KQT member 2 (O88943 whole entry, the tested form may be a part): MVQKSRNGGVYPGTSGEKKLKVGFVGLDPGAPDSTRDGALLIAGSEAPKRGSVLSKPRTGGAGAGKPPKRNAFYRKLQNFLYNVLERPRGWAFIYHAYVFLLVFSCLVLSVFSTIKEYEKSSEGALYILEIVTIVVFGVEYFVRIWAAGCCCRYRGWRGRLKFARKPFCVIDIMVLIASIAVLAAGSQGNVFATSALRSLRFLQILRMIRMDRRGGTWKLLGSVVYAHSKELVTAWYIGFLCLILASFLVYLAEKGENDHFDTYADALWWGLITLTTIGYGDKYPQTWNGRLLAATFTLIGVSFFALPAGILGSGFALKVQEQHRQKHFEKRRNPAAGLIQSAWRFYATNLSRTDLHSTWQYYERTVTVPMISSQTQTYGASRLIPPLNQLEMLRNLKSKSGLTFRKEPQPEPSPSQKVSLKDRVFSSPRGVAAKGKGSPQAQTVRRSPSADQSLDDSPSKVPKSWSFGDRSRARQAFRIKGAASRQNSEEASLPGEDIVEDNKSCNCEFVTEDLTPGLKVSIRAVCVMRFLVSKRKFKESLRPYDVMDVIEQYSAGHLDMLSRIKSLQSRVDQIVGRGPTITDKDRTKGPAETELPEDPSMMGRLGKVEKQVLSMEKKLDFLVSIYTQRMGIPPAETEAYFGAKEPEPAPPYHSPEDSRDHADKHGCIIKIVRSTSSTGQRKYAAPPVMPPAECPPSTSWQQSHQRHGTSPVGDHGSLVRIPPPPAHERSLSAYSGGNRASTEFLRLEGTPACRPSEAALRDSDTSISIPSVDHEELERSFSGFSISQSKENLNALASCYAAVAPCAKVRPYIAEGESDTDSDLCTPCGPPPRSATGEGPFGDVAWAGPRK

CHO = CHO cell viability loss, potency – luminescence, cytotoxicity control for TLR9-MyD88 binding inhibitor project, dose response (AID 588339); assay type: functional, cell-based, hamster; conditions: Cricetulus griseus;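 further: CHO cells stably coexpressing TLR9 and MyD88 fusions from primary screen; compound exposure lasted 48 hours before viability readout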
Beta Lactamase = Beta Lactamase (Pseudomonas aeruginosa, UniProt Q932Y6); experiment: BLA reporter interference, concentration series – BLA reporter cells, FRET fluorescence, artefact control for TLR9-MyD88 binding inhibitor project, dose response (AID 588341); assay type: cell-based;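 further: cell based assay in CHO-K1 cells stably expressing beta-lactamase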
Sequence of Beta Lactamase (Q932Y6 whole entry): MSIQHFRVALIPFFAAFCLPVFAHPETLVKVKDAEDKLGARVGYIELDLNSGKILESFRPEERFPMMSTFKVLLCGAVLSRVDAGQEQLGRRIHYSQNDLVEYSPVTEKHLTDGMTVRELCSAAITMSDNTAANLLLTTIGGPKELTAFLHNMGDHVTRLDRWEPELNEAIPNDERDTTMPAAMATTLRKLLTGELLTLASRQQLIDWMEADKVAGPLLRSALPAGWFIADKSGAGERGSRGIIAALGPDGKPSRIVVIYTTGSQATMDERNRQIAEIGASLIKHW

cells [9] = experiment: cells
A-375 = experiment: proliferation inhibition in MITF-low A375 cells – cell-based, cherry-pick samples, set 2, counter-screen for MITF modulator project, dose response (AID 540335); assay type: functional; conditions: Homo sapiens
HEK293 [10] = experiment: cells; conditions: Homo sapiens
[11] = target: 72 kDa type IV collagenase (Homo sapiens, UniProt P08253); experiment: Dose Response validation of uHTS RPN11 inhibitor hits using a MMP-2 Fluorescence assay.; assay type: functional
[12] = target: T3, Microphthalmia-associated transcription factor (Homo sapiens, UniProt O75030); experiment: reducers of TRPM1 reporter luminescence, concentration series – cell-based, SK-MEL-5, cherry-picked, set 3, MITF inhibitor project, dose response (AID 493073); assay type: functional;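 further: SK-MEL-5 melanoma cells with luciferase driven by the MITF target TRPM1 promoter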
T3 sequence (O75030 whole entry): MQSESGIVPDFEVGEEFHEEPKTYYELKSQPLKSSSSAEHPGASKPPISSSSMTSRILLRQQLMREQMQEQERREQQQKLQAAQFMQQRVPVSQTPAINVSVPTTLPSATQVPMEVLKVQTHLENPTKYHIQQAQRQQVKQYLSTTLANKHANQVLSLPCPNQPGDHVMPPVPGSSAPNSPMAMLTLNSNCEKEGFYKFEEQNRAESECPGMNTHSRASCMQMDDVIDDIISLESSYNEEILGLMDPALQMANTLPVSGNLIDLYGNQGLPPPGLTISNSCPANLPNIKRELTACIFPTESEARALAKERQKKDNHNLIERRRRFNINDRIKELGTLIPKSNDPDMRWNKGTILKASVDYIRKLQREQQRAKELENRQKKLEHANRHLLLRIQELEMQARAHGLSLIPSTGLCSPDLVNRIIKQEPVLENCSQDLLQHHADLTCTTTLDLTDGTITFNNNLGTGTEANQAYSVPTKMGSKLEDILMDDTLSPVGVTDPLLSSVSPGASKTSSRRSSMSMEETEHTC

[13] = target: DNA (cytosine-5)-methyltransferase 1 (Homo sapiens, UniProt P26358); experiment: inhibition of DNA methylation by DNMT1 – biochemical, fluorescent molecular beacon, confirmation (AID 602386); assay type: functional
[14] = target: T4, DNA repair protein RAD52 homolog (Homo sapiens, UniProt P43351); assay type: functional, biochemical
T4 sequence (P43351 whole entry): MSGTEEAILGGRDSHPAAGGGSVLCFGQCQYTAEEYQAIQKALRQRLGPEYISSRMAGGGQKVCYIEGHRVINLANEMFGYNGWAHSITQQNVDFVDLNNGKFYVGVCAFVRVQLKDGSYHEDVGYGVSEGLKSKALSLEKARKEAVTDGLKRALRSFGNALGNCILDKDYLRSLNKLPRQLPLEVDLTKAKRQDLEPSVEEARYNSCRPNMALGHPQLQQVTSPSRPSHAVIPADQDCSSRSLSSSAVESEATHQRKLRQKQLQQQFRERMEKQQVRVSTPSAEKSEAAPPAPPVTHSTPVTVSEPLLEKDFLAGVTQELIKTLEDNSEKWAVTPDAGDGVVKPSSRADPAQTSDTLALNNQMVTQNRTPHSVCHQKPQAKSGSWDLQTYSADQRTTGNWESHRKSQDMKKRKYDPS

[15] = target: T5, Oxysterols receptor LXR-beta (Homo sapiens, UniProt P55055); assay type: functional, cell-based;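 further: Cell-based luminescence dose-response assay of agonist activity at LXR, run as a confirmatory counterscreen to a daf-12 agonist screen; HEK293 cells with Gal4-LXR fusion and GAL4-driven luciferase reporter; agonist potency from rising luciferase signal of a Gal4-LXR reporter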
T5 sequence (P55055 whole entry): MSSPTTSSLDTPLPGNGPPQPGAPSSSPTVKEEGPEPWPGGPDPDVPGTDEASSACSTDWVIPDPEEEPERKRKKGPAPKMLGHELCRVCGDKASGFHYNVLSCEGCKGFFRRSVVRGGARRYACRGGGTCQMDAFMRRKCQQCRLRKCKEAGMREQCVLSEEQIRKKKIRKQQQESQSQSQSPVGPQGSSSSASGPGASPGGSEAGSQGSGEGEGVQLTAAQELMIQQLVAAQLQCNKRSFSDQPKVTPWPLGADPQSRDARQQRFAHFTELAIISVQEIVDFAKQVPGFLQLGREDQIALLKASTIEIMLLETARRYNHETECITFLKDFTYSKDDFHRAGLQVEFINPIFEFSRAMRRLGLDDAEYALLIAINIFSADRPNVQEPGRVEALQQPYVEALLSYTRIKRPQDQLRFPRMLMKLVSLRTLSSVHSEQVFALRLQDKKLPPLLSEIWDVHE

INS1 = experiment: INS-1E survival protection against cytokine death – cell-based, luminescence, retest, dose response (AID 449756); assay type: functional; conditions: Rattus norvegicus;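 further: cell death triggered by IL-1 beta plus TNF-alpha plus IFN-gamma mixture; protective hits raise ATP signal compared with cytokine alone wells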
Prothrombin = Prothrombin (Bos taurus, UniProt P00735); experiment: thrombin protease inhibitors – biochemical, fluorescence polarization, uHTS hits, dose response (AID 602369); assay type: functional
HEK293 [16] = experiment: cells; conditions: Homo sapiens; remark: listed apart in the source
[17] = target: 26S proteasome non-ATPase regulatory subunit 14 (Homo sapiens, UniProt O00487); experiment: inhibition of proteasome subunit RPN11 – biochemical, fluorescence polarization, uHTS hits, confirmation (AID 602368); assay type: functional
Sequence of 26S proteasome non-ATPase regulatory subunit 14 (O00487 whole entry): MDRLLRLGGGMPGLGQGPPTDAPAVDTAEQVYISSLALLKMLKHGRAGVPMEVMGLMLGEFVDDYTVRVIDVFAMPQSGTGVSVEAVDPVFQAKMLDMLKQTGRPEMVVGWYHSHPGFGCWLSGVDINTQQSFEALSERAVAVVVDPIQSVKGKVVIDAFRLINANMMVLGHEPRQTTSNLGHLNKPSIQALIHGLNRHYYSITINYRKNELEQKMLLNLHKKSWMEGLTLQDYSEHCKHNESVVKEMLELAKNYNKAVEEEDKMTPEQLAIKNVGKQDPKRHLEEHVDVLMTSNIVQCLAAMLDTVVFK

[18] = Trypanosoma cruzi growth suppression in host cells – NIH3T3 host cells, beta-gal luminescence, confirmation (AID 2044); assay type: functional, cell-based;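 further: intracellular parasites grown in NIH/3T3 mouse fibroblasts as host cells; luminescent beta-galactosidase reporter signal from transgenic T. cruzi replicating inside host cells; inhibitors lower the luminescence signal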
[19] = target: Luciferin 4-monooxygenase (Photinus pyralis, UniProt P08659); experiment: inhibition of purified Photinus pyralis luciferase – biochemical, luminescence, dose response (AID 1891)
Sequence of Luciferin 4-monooxygenase (P08659 whole entry): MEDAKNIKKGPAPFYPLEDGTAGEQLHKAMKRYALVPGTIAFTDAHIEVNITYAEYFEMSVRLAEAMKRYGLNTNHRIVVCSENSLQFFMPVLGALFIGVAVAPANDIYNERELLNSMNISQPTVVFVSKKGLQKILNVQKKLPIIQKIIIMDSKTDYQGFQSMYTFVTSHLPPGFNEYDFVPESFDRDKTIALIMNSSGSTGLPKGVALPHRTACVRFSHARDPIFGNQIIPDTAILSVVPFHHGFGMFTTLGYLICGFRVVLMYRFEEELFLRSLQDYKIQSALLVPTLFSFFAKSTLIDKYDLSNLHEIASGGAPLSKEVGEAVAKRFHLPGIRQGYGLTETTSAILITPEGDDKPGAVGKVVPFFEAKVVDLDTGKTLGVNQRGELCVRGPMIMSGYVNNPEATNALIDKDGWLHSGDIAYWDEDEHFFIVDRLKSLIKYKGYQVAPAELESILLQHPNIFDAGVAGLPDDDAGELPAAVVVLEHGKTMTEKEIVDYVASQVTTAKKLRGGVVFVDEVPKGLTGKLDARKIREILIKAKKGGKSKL

[20] = Luminescence Cell-Based Dose Confirmation HTS to Identify Inhibitors of Platelet Dense Granule Release. [Related pubchem assays: 1663 (Primary HTS), 1678 (Summary of Project)]; assay type: functional
[21] = target: Endoplasmic reticulum aminopeptidase 1 (Homo sapiens, UniProt Q9NZ08); experiment: inhibition of human ERAP1 enzyme activity – biochemical, cherry-pick, set 2, plate reader, dose response (AID 743314)
Sequence of Endoplasmic reticulum aminopeptidase 1 (Q9NZ08 whole entry): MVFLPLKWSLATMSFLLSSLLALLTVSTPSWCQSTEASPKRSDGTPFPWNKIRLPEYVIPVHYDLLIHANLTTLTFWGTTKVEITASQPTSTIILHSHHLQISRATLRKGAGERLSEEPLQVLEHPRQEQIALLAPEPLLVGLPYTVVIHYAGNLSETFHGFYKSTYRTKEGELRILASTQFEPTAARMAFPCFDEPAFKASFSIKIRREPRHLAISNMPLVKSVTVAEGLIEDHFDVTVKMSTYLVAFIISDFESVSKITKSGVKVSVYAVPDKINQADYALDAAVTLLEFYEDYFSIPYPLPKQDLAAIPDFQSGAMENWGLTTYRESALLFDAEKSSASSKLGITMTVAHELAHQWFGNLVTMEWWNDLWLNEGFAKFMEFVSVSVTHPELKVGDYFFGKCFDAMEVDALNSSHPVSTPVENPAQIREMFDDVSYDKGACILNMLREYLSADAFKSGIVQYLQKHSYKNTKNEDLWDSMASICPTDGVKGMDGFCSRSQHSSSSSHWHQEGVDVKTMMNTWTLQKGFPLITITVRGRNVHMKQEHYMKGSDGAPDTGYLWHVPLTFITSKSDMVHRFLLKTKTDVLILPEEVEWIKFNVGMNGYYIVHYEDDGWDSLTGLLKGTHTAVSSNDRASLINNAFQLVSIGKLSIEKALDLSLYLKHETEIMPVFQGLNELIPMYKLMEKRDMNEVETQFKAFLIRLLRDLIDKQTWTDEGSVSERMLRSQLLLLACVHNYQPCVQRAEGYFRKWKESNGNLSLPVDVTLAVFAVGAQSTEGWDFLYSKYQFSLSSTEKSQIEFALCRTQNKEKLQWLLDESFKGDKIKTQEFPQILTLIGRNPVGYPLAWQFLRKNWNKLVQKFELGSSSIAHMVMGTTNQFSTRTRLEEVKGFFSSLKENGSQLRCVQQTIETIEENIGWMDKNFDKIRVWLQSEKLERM

CCOC(=O)COn1c2c(c3c4no[n+]([O-])c4ccc31)CCCC2
IC50 (cells [1]): 5.49 µM (active)
CC50 [2]: > 100 µM (active)

Cc1[nH]c(=O)[nH]c1C(=O)CCCCC(=O)O
EC50 (Insulin-degrading enzyme [3]): 16.9 µM (inactive)
EC50 (Insulin-degrading enzyme [4]): 12.2 µM (inactive)
AC50 [5]: 10.2 µM (active)
IC50 [6]: 0.0174 µM (active)
IC50 (Nonstructural protein 1): 2.14 µM (active)

COc1ccc(Cl)cc1C(=O)NC(=S)Nc1ccccc1N1CCOCC1
IC50 [7]: 0.825 µM (active)
IC50 [8]: 5.98 µM (active)

CC(=O)Oc1cccc(N2C(=O)c3cccc4c([N+](=O)[O-])ccc(c34)C2=O)c1
IC50 (CHO): 5.26 µM (active)
IC50 (Beta Lactamase): 4.5 µM (active)

Cc1cc(C)c2c(N)c3cccc(C)c3nc2n1
EC50 (cells [9]): > 67.5 µM (inactive)
AC50 (A-375): 3.39 µM (active)
EC50 (HEK293 [10]): > 2.21 µM (active)
IC50 [11]: > 100 µM (inactive)
AC50 [12]: 3.21 µM (active)
IC50 [13]: > 99 µM (inactive)
AC50 [14]: 2.24 µM (active)
EC50 [15]: > 67.5 µM (inactive)
AC50 (INS1): 1.62 µM (active)
IC50 (Prothrombin): > 100 µM (inactive)
EC50 (HEK293 [16]): > 59.6 µM (inactive)
IC50 [17]: 13.1 µM (active)
EC50 [18]: 1.27 µM (active)

COc1ccc(-c2cc3ccc(O)cc3oc2=O)cc1OC
IC50 (CHO): > 49.8 µM (inactive)
EC50 [19]: 1.23 µM (active)
EC50 [20]: 0.335 µM (active)
AC50 [21]: 3.21 µM (active)
IC50 (Beta Lactamase): 5.23 µM (active)
